Assay results reported in US20230340012A1, “NATURAL AND SYNTHETIC COMPOUNDS FOR TREATING CANCER AND OTHER DISEASES” (PACIFIC ARROW LIMITED, priority 2009, published 2023).

Tested on: cancer cells
Assay: MTT cytotoxic assay of esterification products (Cytotoxicity activity)
Assay type: cell-based, human
From the text: The peaks, fractions and compounds are selected according to the activities of times studies and the changes of peaks. Selecting the HPLC fractions for isolation is according to the cytotoxic activity of the reaction product obtained at a specific time. The compounds having strong to weak activities are selected and isolated. Selecting the HPLC fractions for isolation may be according to the cytotoxic activity of times studies and the change of peaks. The anti-cancer activities are the MTT studies of bone (U2OS), lung (H460), bladder (HTB-9), ovary (ES2), colon (HCT116), pancreas (Capan), ovary(OVCAR3), prostate (DU145), skin (SK-Mel-5), mouth (KB), kidney (A498), breast (MCF-7), liver (HepG2), brain (T98G), leukemia (K562), cervix (HeLa).
Esterification of compound (A), (B), (C), (D1), (D2), (E), (F), (G), (H1), (H2), E4A, E4A2Y, (P1), P(2), terpene, isoprene, triterpenes, hydroxylated triterpenes, with acyl halide, wherein the halide comprise chloride, bromide, fluoride and iodide, wherein the acyl halide comprise acyl chloride, wherein acyl chloride comprise tigloyl chloride, angeloyl chloride, acetyl chloride, crotonoyl chloride, 3,3-Dimethylacryloyl chloride, senecioyl chloride, cinnamoyl chloride, pentenoyl chloride, hexanoyl chloride, benzoyl chloride, ethylbutyryl chloride, propionyl chloride, 2-propenoyl chloride, isobutyryl chloride, butyryl chloride, (2E)-2-pentenoyl chloride, 4-Pentenoyl chloride, 5-hexenoyl chloride, heptanoyl chloride, octanoyl chloride, nonanoyl chloride, decanoyl chloride, Lauroyl chloride, myristoyl chloride, oleoyl chloride. The compounds vary in composition when the time or temperature of the reaction is changed. The peaks, fractions and compounds are selected according to the activities of times studies and the changes of peaks. The compounds having strong to weak activities are selected and isolated. The anti-cancer activities (Cytotoxic Assay) are the MTT studies of bone (U2OS), lung (H460), bladder(HTB-9), ovary (ES2), colon (HCT116), pancreas (Capan), ovary(OVCAR3), prostate (DU145), skin (SK-Mel-5), mouth (KB), kidney (A498), breast (MCF-7), liver (HepG2), brain (T98G), leukemia (K562), cervix (HeLa). The active esterification products are purified with HPLC. The reaction product of mixtures and individual compounds are tested with MTT Cytotoxic Assay. Details of method are in Experiment 3 of the present application. A second esterification of compound can be selected from the above experiment results to produce new active compounds. A partial esterification compound is selected from the above experiments to perform a second or repeated with a third esterification with different acyl chloride in order to produce new active compounds with the experiments in the present application.
Method: 40 mg of triterpene core (fraction IV) was dissolved in 1 ml pyridine in a 50 ml tube. Reaction is started by adding 0.2 ml of acyl chloride (Tigloyl chloride, angeloyl chloride, Acetyl chloride, Crotonoyl chloride, 3,3-Dimethylacryloyl chloride(senecioyl chloride), Cinnamoyl chloride, Pentenoyl chloride, Hexanoyl chloride, benzoyl chloride or Ethylbutyryl chloride). The mixture is stirred for 5 sec, 1 min, 2 min, 5 min, 10 min, 30 min, 1 hr, 2 hr, 18 hr, 2 days or 3 days at 0° C., 25° C. or 75° C. temperature. At the end of reaction, 5 ml of 2N HCl or 1 M NaHCO3 is added to the reaction mixture. The solution is then extracted 3 times with 10 ml of ethyl acetate which is then evaporated under vacuum and at 45C and lyophilization. The reaction product is dissolved in 80% acetonitrile - 0.005% Trifluoroacetic acid or DMSO; and was separated with HPLC. Selecting the HPLC fractions for isolation is according to the cytotoxic activity of the reaction product obtained at a specific reaction time. The active esterification products are purified with HPLC. The reaction product of mixtures and individual compounds are tested with MTT cytotoxic assay. Structures are determined with NMR. […]

[1] = E4A esterified with Cinnamoyl chloride (Cin = Cinnamoyl), compounds isolated with HPLC
[2] = MTT cytotoxic assay, isolated esterification products of E4A
[3] = E4A esterified with 2-propenoyl chloride (Ppe = Propenoyl), compounds isolated with HPLC
[4] = E4A esterified with Propionyl chloride (Ppi = Propionyl), compounds isolated with HPLC
[5] = E4A esterified with benzoyl chloride (Ben = benzoyl), compounds isolated with HPLC
[6] = esterification products of core compound E4A with (2E)-2-pentenoyl chloride (2pe = 2-pentenoyl)
[7] = esterification products of core compound E4A with Butyryl chloride (But = Butyryl)
[8] = esterification products of core compound E4A with Decanoyl chloride (Dec = Decanoyl)
[9] = esterification products of core compound E4A with Isobutyryl chloride (Iso = Isobutyryl)
[10] = esterification products of core compound E4A with Myristoyl chloride (Myr = Myristoyl)
[11] = esterification products of core compound E4A with Octanoyl chloride (Oct = Octanoyl)
[12] = esterification products isolated with HPLC, graded strong / moderate / weak

CC1(C)CC2C3=CCC4C5(C)CCC(OC(=O)C=Cc6ccccc6)C(C)(COC(=O)C=Cc6ccccc6)C5CCC4(C)C3(C)CC(O)C2(COC(=O)C=Cc2ccccc2)C(OC(=O)C=Cc2ccccc2)C1OC(=O)C=Cc1ccccc1 (stereo not drawn) [Compound J15]
Cytotoxicity activity [1]: weak

CCC(CC)C(=O)OCC1(C)C(OC(=O)C(CC)CC)CCC2(C)C1CCC1(C)C2CC=C2C3CC(C)(C)C(O)C(O)C3(CO)C(O)CC21C (stereo not drawn) [Compound E31]
Cytotoxicity activity [2]: moderate

CC1(C)CC2C3=CCC4C5(C)CCC(O)C(C)(CO)C5CCC4(C)C3(C)CC(OC(=O)C=Cc3ccccc3)C2(CO)C(OC(=O)C=Cc2ccccc2)C1OC(=O)C=Cc1ccccc1 (stereo not drawn) [Compound J22]
Cytotoxicity activity [1]: moderate

CC=C(C)C(=O)OCC1(C)C(O)CCC2(C)C1CCC1(C)C2CC=C2C3CC(C)(C)C(O)C(OC(=O)C(C)=CC)C3(COC(=O)C(C)=CC)C(O)CC21C (stereo not drawn) [Compound A5]
Cytotoxicity activity [2]: moderate

CC1(C)CC2C3=CCC4C5(C)CCC(O)C(C)(CO)C5CCC4(C)C3(C)CC(O)C2(COC(=O)c2ccccc2)C(OC(=O)c2ccccc2)C1O (stereo not drawn) [Compound K26]
Cytotoxicity activity [3]: moderate
Cytotoxicity activity [4]: moderate
Cytotoxicity activity [5]: moderate
Cytotoxicity activity [6]: moderate
Cytotoxicity activity [7]: moderate
Cytotoxicity activity [8]: moderate
Cytotoxicity activity [9]: moderate
Cytotoxicity activity [10]: moderate
Cytotoxicity activity [11]: moderate

CC=C(C)C(=O)OCC1(C)C(O)CCC2(C)C1CCC1(C)C2CC=C2C3CC(C)(C)C(O)C(OC(=O)C(CC)CC)C3(COC(=O)C(C)=CC)C(O)CC21C (stereo not drawn) [Tig—R—Eth—3]
Cytotoxicity activity [12]: moderate

CC=C(C)C(=O)OCC1(C)C(OC(=O)C=Cc2ccccc2)CCC2(C)C1CCC1(C)C2CC=C2C3CC(C)(C)C(O)C(OC(=O)C=Cc4ccccc4)C3(COC(=O)C(C)=CC)C(O)CC21C (stereo not drawn) [Tig—R—Cin—6]
Cytotoxicity activity [12]: weak

CC=CC(=O)OCC1(C)C(OC(=O)C=CC)CCC2(C)C1CCC1(C)C2CC=C2C3CC(C)(C)C(O)C(OC(=O)C=CC)C3(COC(=O)C=CC)C(O)CC21C (stereo not drawn) [Compound I14]
Cytotoxicity activity (E4A esterified with Crotonoyl chloride (Cro = Crotonoyl), compounds isolated with HPLC): weak

C=CCCC(=O)OCC1(C)C(OC(=O)CCC=C)CCC2(C)C1CCC1(C)C2CC=C2C3CC(C)(C)C(OC(=O)CCC=C)C(OC(=O)CCC=C)C3(COC(=O)CCC=C)C(OC(=O)CCC=C)CC21C (stereo not drawn) [Compound C19]
Cytotoxicity activity [2]: none

CC=CC(=O)OC1C(O)C2(COC(=O)C(C)=CC)C(O)CC3(C)C(=CCC4C5(C)CCC(OC(=O)C=CC)C(C)(COC(=O)C(C)=CC)C5CCC43C)C2CC1(C)C (stereo not drawn) [Tig—R—Cro—5]
Cytotoxicity activity [12]: weak

CC(C)=CC(=O)OCC1(C)C(OC(=O)C=C(C)C)CCC2(C)C1CCC1(C)C2CC=C2C3CC(C)(C)C(O)C(O)C3(COC(=O)C=C(C)C)C(O)CC21C (stereo not drawn) [Compound B6]
Cytotoxicity activity [2]: moderate

C=CCCC(=O)OCC12C(O)CC3(C)C(=CCC4C5(C)CCC(O)C(C)(COC(=O)C(C)=CC)C5CCC43C)C1CC(C)(C)C(O)C2O (stereo not drawn) [Tig—Pen—1]
Cytotoxicity activity [12]: strong

CC=C(C)C(=O)OCC1(C)C(O)CCC2(C)C1CCC1(C)C2CC=C2C3CC(C)(C)C(OC(=O)C=Cc4ccccc4)C(O)C3(COC(=O)C=Cc3ccccc3)C(O)CC21C (stereo not drawn) [Tig—Cin—2]
Cytotoxicity activity [12]: moderate

C=CCCC(=O)OC1C(OC(=O)CCC=C)C2(CO)C(O)CC3(C)C(=CCC4C5(C)CCC(OC(=O)CCC=C)C(C)(CO)C5CCC43C)C2CC1(C)C (stereo not drawn) [Compound C23]
Cytotoxicity activity [2]: moderate

CC(C)=CC(=O)OC1C(OC(=O)C=C(C)C)C2(CO)C(OC(=O)C=C(C)C)CC3(C)C(=CCC4C5(C)CCC(O)C(C)(CO)C5CCC43C)C2CC1(C)C (stereo not drawn) [Compound B22]
Cytotoxicity activity [2]: moderate

CC(C)=CC(=O)OCC1(C)C(O)CCC2(C)C1CCC1(C)C2CC=C2C3CC(C)(C)C(OC(=O)C=C(C)C)C(OC(=O)C=C(C)C)C3(COC(=O)C=C(C)C)C(OC(=O)C=C(C)C)CC21C (stereo not drawn) [Compound B16]
Cytotoxicity activity [2]: weak

CC=C(C)C(=O)OCC1(C)C(O)CCC2(C)C1CCC1(C)C2CC=C2C3CC(C)(C)C(O)C(O)C3(CO)C(OC(=O)C(C)=CC)CC21C (stereo not drawn) [Compound A32]
Cytotoxicity activity [2]: moderate

CC1(C)CC2C3=CCC4C5(C)CCC(OC(=O)C=Cc6ccccc6)C(C)(COC(=O)C=Cc6ccccc6)C5CCC4(C)C3(C)CC(O)C2(COC(=O)C=Cc2ccccc2)C(OC(=O)C=Cc2ccccc2)C1O (stereo not drawn) [Compound J9]
Cytotoxicity activity [1]: weak

C=CCCC(=O)OCC1(C)C(O)CCC2(C)C1CCC1(C)C2CC=C2C3CC(C)(C)C(O)C(OC(=O)CCC=C)C3(COC(=O)CCC=C)C(OC(=O)CCC=C)CC21C (stereo not drawn) [Compound C12]
Cytotoxicity activity [2]: weak

CC1(C)CC2C3=CCC4C5(C)CCC(OC(=O)C=Cc6ccccc6)C(C)(COC(=O)C=Cc6ccccc6)C5CCC4(C)C3(C)CC(OC(=O)C=Cc3ccccc3)C2(COC(=O)C=Cc2ccccc2)C(OC(=O)C=Cc2ccccc2)C1O (stereo not drawn) [Compound J18]
Cytotoxicity activity [1]: weak

CCC(CC)C(=O)OCC1(C)C(O)CCC2(C)C1CCC1(C)C2CC=C2C3CC(C)(C)C(O)C(OC(=O)C(CC)CC)C3(COC(=O)C(CC)CC)C(OC(=O)C(CC)CC)CC21C (stereo not drawn) [Compound E12]
Cytotoxicity activity [2]: weak

CC(=O)OCC1(C)C(OC(C)=O)CCC2(C)C1CCC1(C)C2CC=C2C3CC(C)(C)C(O)C(OC(C)=O)C3(COC(C)=O)C(O)CC21C (stereo not drawn) [Compound H9]
Cytotoxicity activity (E4A esterified with Acetyl chloride (Acy = Acetyl), compounds isolated with HPLC): weak

CC1(C)CC2C3=CCC4C5(C)CCC(O)C(C)(COC(=O)c6ccccc6)C5CCC4(C)C3(C)CC(O)C2(CO)C(OC(=O)c2ccccc2)C1O (stereo not drawn) [Compound K30]
Cytotoxicity activity [3]: moderate
Cytotoxicity activity [4]: moderate
Cytotoxicity activity [5]: moderate
Cytotoxicity activity [6]: moderate
Cytotoxicity activity [7]: moderate
Cytotoxicity activity [8]: moderate
Cytotoxicity activity [9]: moderate
Cytotoxicity activity [10]: moderate
Cytotoxicity activity [11]: moderate

CC1(C)CC2C3=CCC4C5(C)CCC(O)C(C)(CO)C5CCC4(C)C3(C)CC(OC(=O)c3ccccc3)C2(CO)C(OC(=O)c2ccccc2)C1OC(=O)c1ccccc1 (stereo not drawn) [Compound K22]
Cytotoxicity activity [3]: moderate
Cytotoxicity activity [4]: moderate
Cytotoxicity activity [5]: moderate
Cytotoxicity activity [6]: moderate
Cytotoxicity activity [7]: moderate
Cytotoxicity activity [8]: moderate
Cytotoxicity activity [9]: moderate
Cytotoxicity activity [10]: moderate
Cytotoxicity activity [11]: moderate

CC=C(C)C(=O)OCC1(C)C(O)CCC2(C)C1CCC1(C)C2CC=C2C3CC(C)(C)C(OC(=O)C=Cc4ccccc4)C(O)C3(CO)C(O)CC21C (stereo not drawn) [Tig—Cin—5]
Cytotoxicity activity [12]: moderate

CC=CC(=O)OCC12C(O)CC3(C)C(=CCC4C5(C)CCC(O)C(C)(COC(=O)C(C)=CC)C5CCC43C)C1CC(C)(C)C(OC(=O)C=CC)C2O (stereo not drawn) [Tig—Cro—2]
Cytotoxicity activity [12]: moderate

C=CCCC(=O)OC1C(OC(=O)CCC=C)C2(COC(=O)C(C)=CC)C(O)CC3(C)C(=CCC4C5(C)CCC(O)C(C)(COC(=O)C(C)=CC)C5CCC43C)C2CC1(C)C (stereo not drawn) [Tig—R—Pen—1]
Cytotoxicity activity [12]: weak
